Test results as given in patent publication US20100267561A1, “HERBICIDAL PYRIDAZINONE DERIVATIVES” (priority 2007, published 2010).

Experiments:
Assay in all cases: Test B pre-/postemergence plant response
Format in all cases: in vivo
[1] = tested on: yellow nutsedge (Cyperus esculentus)
In short: (§1)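 Visual scoring from 0 (no effect) to 100 (complete control) against untreated controls was done 13 to 15 days after greenhouse treatment. Chemicals were formulated in a surfactant-containing non-phytotoxic solvent and applied to soil preemergence or to 1- to 4-leaf (2-18 cm) plants postemergence.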

[2] = tested on: catchweed bedstraw (Galium aparine); details: Preemergence; for Galium plant response rating: scale 0 to 100
In short: as §1

[3] = tested on: common ragweed (Ambrosia elation)
In short: as §1

[4] = tested on: wild oat (Avena fatua)
In short: as §1

[5] = tested on: blackgrass (Alopecurus myosuroides); details: for Blackgrass plant response rating: 8 g ai/ha
In short: as §1

[6] = tested on: kochia (Kochia scoparia); details: for Kochia plant response rating: postemergence, 0-100 scale; for Plant response rating, Kochia: Postemergence
In short: as §1

[7] = tested on: corn (Zea mays)
In short: as §1

[8] = tested on: woolly cupgrass (Eriochloa villosa)
In short: as §1

[9] = tested on: large crabgrass (Digitaria sanguinalis)
In short: as §1

[10] = tested on: lambsquarters (Chenopodium album); details: for Lambsquarters plant response rating: postemergence, 0-100 scale; for Plant response rating, Lambsquarters: Postemergence
In short: as §1

[11] = tested on: velvetleaf (Abutilon theophrasti)
In short: as §1

[12] = tested on: green foxtail (Setaria viridis)
In short: as §1

[13] = tested on: pigweed (Amaranthus retroflexus)
In short: as §1

[14] = tested on: cocklebur (Xanthium strumarium); details: for Cocklebur plant response rating: 8 g ai/ha
In short: as §1

[15] = 8 g ai/ha, postemergence, 0-100 scale
[16] = 16 g ai/ha, postemergence, 0-100 scale
[17] = Postemergence, 31 g ai/ha, scale 0 to 100
[18] = Postemergence, 62 g ai/ha, scale 0 to 100, 0 no effect, 100 complete control
[19] = Preemergence, 31 g ai/ha, scale 0 to 100 (0 no effect, 100 complete control)
[20] = Preemergence, 62 g ai/ha, 0 to 100 scale, 0 no effect, 100 complete control
[21] = Preemergence, 8 g ai/ha, scale 0 to 100
[22] = Preemergence, 16 g ai/ha, scale 0 to 100
[23] = Postemergence, 16 g ai/ha, scale 0 to 100
[24] = Preemergence, 16 g ai/ha, scale 0 to 100 (0 no effect, 100 complete control)
[25] = 62 g ai/ha, scale 0 to 100, 0 no effect, 100 complete control

Compound: CCc1cc(-c2ccc(C(F)(F)F)cc2)nn1-c1c(O)c(OC)nn(C)c1=O [Compound 66]
- Nutsedge, Yellow plant response rating [1, 15]: 0
- Nutsedge, Yellow plant response rating [1, 16]: 0
- Plant response rating, Nutsedge, Yellow [1, 17]: 0
- Plant response rating, Nutsedge, Yellow [1, 18]: 0
- Plant response rating, Nutsedge, Yellow [1, 19]: 0
- Plant response rating, Nutsedge, Yellow [1, 20]: 100
- Nutsedge, Yellow plant response rating [1, 21]: 0
- Nutsedge, Yellow plant response rating [1, 22]: 0
- Plant response rating, Galium ([2]; 31 g ai/ha, scale 0 to 100 (0 no effect, 100 complete control)): 0
- Plant response rating, Galium ([2]; 62 g ai/ha, 0 to 100 scale, 0 no effect, 100 complete control): 0
- Galium plant response rating ([2]; 8 g ai/ha): 0
- Galium plant response rating ([2]; 16 g ai/ha): 0
- Ragweed plant response rating [3, 15]: 0
- Ragweed plant response rating [3, 16]: 0
- Plant response rating, Ragweed [3, 17]: 0
- Plant response rating, Ragweed [3, 18]: 0
- Plant response rating, Ragweed [3, 20]: 0
- Ragweed plant response rating [3, 21]: 0
- Ragweed plant response rating [3, 22]: 0
- Oat, Wild plant response rating [4, 15]: 95
- Oat, Wild plant response rating [4, 16]: 100
- Plant response rating, Oat, Wild [4, 17]: 100
- Plant response rating, Oat, Wild [4, 18]: 100
- Plant response rating, Oat, Wild [4, 19]: 95
- Plant response rating, Oat, Wild [4, 20]: 100
- Oat, Wild plant response rating [4, 21]: 90
- Oat, Wild plant response rating [4, 22]: 95
- Blackgrass plant response rating ([5]; postemergence, 0-100 scale): 90
- Plant response rating, Blackgrass [5, 23]: 100
- Plant response rating, Blackgrass [5, 17]: 100
- Plant response rating, Blackgrass [5, 18]: 100
- Plant response rating, Blackgrass [5, 24]: 100
- Plant response rating, Blackgrass [5, 19]: 100
- Plant response rating, Blackgrass [5, 20]: 100
- Blackgrass plant response rating ([5]; Preemergence, scale 0 to 100): 90
- Kochia plant response rating ([6]; 8 g ai/ha): 0
- Kochia plant response rating ([6]; 16 g ai/ha): 0
- Plant response rating, Kochia ([6]; 31 g ai/ha, scale 0 to 100): 0
- Plant response rating, Kochia [6, 25]: 0
- Corn plant response rating [7, 15]: 65
- Plant response rating, Corn [7, 23]: 75
- Plant response rating, Corn [7, 17]: 90
- Plant response rating, Corn [7, 18]: 100
- Plant response rating, Corn [7, 19]: 98
- Plant response rating, Corn [7, 20]: 100
- Corn plant response rating [7, 21]: 0
- Corn plant response rating [7, 22]: 70
- Cupgrass, Woolly plant response rating [8, 15]: 90
- Plant response rating, Cupgrass, Woolly [8, 23]: 95
- Plant response rating, Cupgrass, Woolly [8, 17]: 100
- Plant response rating, Cupgrass, Woolly [8, 18]: 100
- Plant response rating, Cupgrass, Woolly [8, 19]: 90
- Plant response rating, Cupgrass, Woolly [8, 20]: 98
- Cupgrass, Woolly plant response rating [8, 21]: 0
- Cupgrass, Woolly plant response rating [8, 22]: 80
- Crabgrass, Large plant response rating [9, 15]: 70
- Plant response rating, Crabgrass, Large [9, 23]: 85
- Plant response rating, Crabgrass, Large [9, 17]: 98
- Plant response rating, Crabgrass, Large [9, 18]: 100
- Plant response rating, Crabgrass, Large [9, 19]: 60
- Plant response rating, Crabgrass, Large [9, 20]: 80
- Crabgrass, Large plant response rating [9, 21]: 0
- Crabgrass, Large plant response rating [9, 22]: 0
- Lambsquarters plant response rating ([10]; 8 g ai/ha): 0
- Lambsquarters plant response rating ([10]; 16 g ai/ha): 0
- Plant response rating, Lambsquarters ([10]; 31 g ai/ha, scale 0 to 100): 0
- Plant response rating, Lambsquarters [10, 25]: 0
- Velvetleaf plant response rating [11, 15]: 0
- Velvetleaf plant response rating [11, 16]: 0
- Plant response rating, Velvetleaf [11, 17]: 0
- Plant response rating, Velvetleaf [11, 18]: 0
- Plant response rating, Velvetleaf [11, 19]: 0
- Plant response rating, Velvetleaf [11, 20]: 0
- Velvetleaf plant response rating [11, 21]: 0
- Velvetleaf plant response rating [11, 22]: 0
- Foxtail, Green plant response rating [12, 15]: 80
- Plant response rating, Foxtail, Green [12, 23]: 100
- Plant response rating, Foxtail, Green [12, 17]: 100
- Plant response rating, Foxtail, Green [12, 18]: 100
- Plant response rating, Foxtail, Green [12, 19]: 100
- Plant response rating, Foxtail, Green [12, 20]: 100
- Foxtail, Green plant response rating [12, 21]: 98
- Foxtail, Green plant response rating [12, 22]: 100
- Pigweed plant response rating [13, 15]: 0
- Pigweed plant response rating [13, 16]: 0
- Plant response rating, Pigweed [13, 17]: 0
- Plant response rating, Pigweed [13, 18]: 0
- Plant response rating, Pigweed [13, 19]: 0
- Plant response rating, Pigweed [13, 20]: 95
- Pigweed plant response rating [13, 21]: 0
- Pigweed plant response rating [13, 22]: 0
- Cocklebur plant response rating ([14]; postemergence, 0-100 scale): 0
- Plant response rating, Cocklebur [14, 23]: 0
- Plant response rating, Cocklebur [14, 17]: 0
- Plant response rating, Cocklebur [14, 18]: 0
- Plant response rating, Cocklebur [14, 24]: 0
- Plant response rating, Cocklebur [14, 19]: 0
- Plant response rating, Cocklebur [14, 20]: 0
- Cocklebur plant response rating ([14]; Preemergence, scale 0 to 100): 0
